Key:
Podosphaera fuliginea = test: Antifungal activity against Podosphaera fuliginea infected compound-pre-treated cucumber seedlings at 300 ppm incubated for 2 days prior to infection measured after 4 days relative to buthiobate; format: functional
Rhizoctonia solani = test: Antifungal activity against Rhizoctonia solani infected compound-pre-treated rice seedlings at 300 ppm incubated for 2 days prior to infection measured after 4 days relative to diclomezine; format: functional

Compound | Activity_index (Podosphaera fuliginea) | Activity_index (Rhizoctonia solani)
C[Si](C)(C)CC(C#N)(Cn1cncn1)c1ccc(Cl)cc1Cl (centres undefined) | 2 | 2
C[Si](C)(C)CC(C#N)(Cn1cncn1)c1ccc(Cl)c(Cl)c1 (centres undefined) | 2 | 0
C[Si](C)(CC(C#N)(Cn1cncn1)c1ccc(Cl)cc1)c1ccccc1 (centres undefined) | 2 | 0
C[Si](C)(CC(C#N)(Cn1cncn1)c1ccccc1)c1ccccc1 (centres undefined) | 2 | 0
C[Si](C)(CC(C#N)(Cn1cncn1)c1cccc(Oc2ccccc2)c1)c1ccccc1 (centres undefined) | 0 | 0
C[Si](C)(C)CC(C#N)(Cn1cncn1)c1ccc(F)cc1 (centres undefined) | 0 | 2
C[Si](C)(C)CC(C#N)(Cn1cncn1)c1ccc(Cl)cc1 (centres undefined) | 0 | 2
C[Si](C)(C)CC(C#N)(Cn1cncn1)c1ccccc1 (centres undefined) | 2 | 2
COc1ccc(C(C#N)(Cn2cncn2)C[Si](C)(C)C)cc1 (centres undefined) | 2 | 2
Cc1ccc(C(C#N)(Cn2cncn2)C[Si](C)(C)C)cc1 (centres undefined) | 2 | 0
C[Si](C)(C)CC(C#N)(Cn1cncn1)c1ccccc1Cl (centres undefined) | 0 | 2
C[Si](C)(C)CC(C#N)(Cn1cncn1)c1cccc(Cl)c1 (centres undefined) | 2 | 0
